# Biological target: T1, human α-galactosidase A (GLA; α-Gal A) (Homo sapiens, UniProt P06280)
# T1 construct: heart tissue cryosections; no tag stated
# T1 sequence (P06280 32-429): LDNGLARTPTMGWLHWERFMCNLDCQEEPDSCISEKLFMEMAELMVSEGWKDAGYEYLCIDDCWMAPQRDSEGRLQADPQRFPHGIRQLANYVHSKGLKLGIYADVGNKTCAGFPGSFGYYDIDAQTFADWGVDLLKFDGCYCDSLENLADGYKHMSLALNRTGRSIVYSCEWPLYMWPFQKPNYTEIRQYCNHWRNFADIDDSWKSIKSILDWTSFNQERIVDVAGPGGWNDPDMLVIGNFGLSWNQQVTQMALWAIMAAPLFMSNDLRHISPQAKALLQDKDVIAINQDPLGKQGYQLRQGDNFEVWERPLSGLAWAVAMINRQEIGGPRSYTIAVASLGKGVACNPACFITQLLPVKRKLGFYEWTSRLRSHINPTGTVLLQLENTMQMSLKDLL
# Test: saturation autoradiography on heart sections, one-site specific binding fit
# Details: pH 5.0 McIlvaine buffer, 23 °C, 60 min; nonspecific binding defined with [19F]AGAL; active site; covalent (proposed); labelled compound; GLA in tissue sections of AAVGLA-treated Gla knockout mice
smiles,measurement,value
O=C(CCCCCCCn1cc(CCCF)nn1)N1C2C(O)C(O)C(O)C(CO)C21 (stereo not shown) [[^18F]AGAL],Kd,~20 nM

# — PMC12432858, “Longitudinal imaging of therapeutic enzyme expression after gene therapy for Fabry disease using positron emission tomography and the radiotracer [^18F]AGAL” (Molecular Therapy, 2024)
